US9980943B2, “Methods of treating muscular dystrophy” (BOARD OF REGENTS OF THE NEVADA SYSTEM OF HIGHER EDUCATION, …, priority 2013, dated 2018)

What was measured:
Type in all cases: cell-based, mouse
[1] = system: β-galactosidase in CMV-LacZ C2C12 myotubes; experiment: CMV-LacZ secondary screen in C2C12 myotubes (β-Gal stabilizing assay); details: for CMV-LACZ in Myotubes, value relative to DMSO: SU9516 analogs, C2C12 CMV-LacZ, N=2; for CMV-LACZ in Myotubes, signal relative to DMSO: C2C12 CMV-LacZ myotubes, fold relative to DMSO
How it was run: (§1)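 A secondary screen identifies compounds that stabilize β-gal independently of the native promoter, using CMV-LacZ C2C12 cells. Curves span 0.5–40 μM at six levels, in duplicate.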

[2] = system: α7 integrin (LacZ reporter in α7βgal+/− myoblasts); experiment: Myoblast α7+/LacZ integrin FDG assay (Burkin assay in myoblasts, 96-well); details: for Burkin Assay in Myoblasts, signal relative to DMSO: α7+/LacZ myoblasts; for Burkin Assay in Myoblasts, signal relative to DMSO / Burkin Assay in Myoblasts, value relative to DMSO: 96-well; for Burkin Assay in Myoblasts, value relative to DMSO: SU9516 analogs, N=3-6
[3] = system: β-galactosidase in CMV-LacZ C2C12 myoblasts; experiment: CMV-LacZ secondary screen in C2C12 myoblasts (β-Gal stabilizing assay); details: for CMV-LACZ in Myoblasts, value relative to DMSO: SU9516 analogs, C2C12 CMV-LacZ, N=2; for CMV-LACZ in Myoblasts (β-galactosidase activity relative to DMSO): CMV-LacZ C2C12 myoblasts
How it was run: as §1

[4] = system: α7 integrin (LacZ reporter in α7+/LacZ myotubes); experiment: Myotube α7 integrin FDG assay (Burkin assay in myotubes, 96-well); details: for Burkin Assay in Myotubes, value relative to DMSO: SU9516 analogs, 96-well, N=3-6
[5] = Mus musculus, Myoblast, 48 h, read-out: Burkin Assay in Myoblasts, value relative to DMSO

COc1ccccc1/C=C1\C(=O)Nc2ccccc21 [MLS001202634-01]
CMV-LACZ in Myotubes, value relative to DMSO ([1]; 0.5 uM): 0.9582 | CMV-LACZ in Myotubes, value relative to DMSO ([1]; 1 uM): 1.0073 | CMV-LACZ in Myotubes, value relative to DMSO ([1]; 5 uM): 1.2348 | CMV-LACZ in Myotubes, value relative to DMSO ([1]; 10 uM): 0.9661 | CMV-LACZ in Myotubes, value relative to DMSO ([1]; 20 uM): 0.9750 | CMV-LACZ in Myotubes, value relative to DMSO ([1]; 40 uM): 0.9340 | fold induction at 0.5 µM [2, 5]: 1.21 | fold induction at 1 µM [2, 5]: 1.1 | fold induction at 5 µM [2, 5]: 1.14 | fold induction at 10 µM [2, 5]: 1.31 | fold induction at 20 µM [2, 5]: 0.994 | fold induction at 40 µM [2, 5]: 0.931 | CMV-LACZ in Myoblasts, value relative to DMSO ([3]; 0.5 uM): 1.0500 | CMV-LACZ in Myoblasts, value relative to DMSO ([3]; 1 uM): 1.0071 | CMV-LACZ in Myoblasts, value relative to DMSO ([3]; 5 uM): 1.1287 | CMV-LACZ in Myoblasts, value relative to DMSO ([3]; 10 uM): 1.0990 | CMV-LACZ in Myoblasts, value relative to DMSO ([3]; 20 uM): 1.0817 | CMV-LACZ in Myoblasts, value relative to DMSO ([3]; 40 uM): 0.9217 | Burkin Assay in Myotubes, value relative to DMSO ([4]; 0.5 uM): 0.9928 | Burkin Assay in Myotubes, value relative to DMSO ([4]; 1 uM): 1.1156 | Burkin Assay in Myotubes, value relative to DMSO ([4]; 5 uM): 0.9675 | Burkin Assay in Myotubes, value relative to DMSO ([4]; 10 uM): 1.139 | Burkin Assay in Myotubes, value relative to DMSO ([4]; 20 uM): 0.9473 | Burkin Assay in Myotubes, value relative to DMSO ([4]; 40 uM): 1.289

Cc1ccc(C(=O)N2CCN(S(=O)(=O)N3CCOCC3)CC2)cc1 [MLS000663185-01]
CMV-LACZ in Myotubes, signal relative to DMSO ([1]; 0.5 uM): 1.0924 | CMV-LACZ in Myotubes, signal relative to DMSO ([1]; 1 uM): 0.9800 | CMV-LACZ in Myotubes, signal relative to DMSO ([1]; 5 uM): 0.9322 | CMV-LACZ in Myotubes, signal relative to DMSO ([1]; 10 uM): 0.8722 | CMV-LACZ in Myotubes, signal relative to DMSO ([1]; 20 uM): 0.9540 | CMV-LACZ in Myotubes, signal relative to DMSO ([1]; 40 uM): 1.1270 | Burkin Assay in Myoblasts, signal relative to DMSO ([2]; 0.5 uM): 1.109 | Burkin Assay in Myoblasts, signal relative to DMSO ([2]; 1 uM): 0.9744 | Burkin Assay in Myoblasts, signal relative to DMSO ([2]; 5 uM): 1.399 | Burkin Assay in Myoblasts, signal relative to DMSO ([2]; 10 uM): 0.9312 | Burkin Assay in Myoblasts, signal relative to DMSO ([2]; 20 uM): 0.9222 | Burkin Assay in Myoblasts, signal relative to DMSO ([2]; 40 uM): 0.8328 | CMV-LACZ in Myoblasts (β-galactosidase activity relative to DMSO) ([3]; 0.5 uM): 1.1390 | CMV-LACZ in Myoblasts (β-galactosidase activity relative to DMSO) ([3]; 1 uM): 1.1477 | CMV-LACZ in Myoblasts (β-galactosidase activity relative to DMSO) ([3]; 5 uM): 0.9688 | CMV-LACZ in Myoblasts (β-galactosidase activity relative to DMSO) ([3]; 10 uM): 0.8567 | CMV-LACZ in Myoblasts (β-galactosidase activity relative to DMSO) ([3]; 20 uM): 0.9211 | CMV-LACZ in Myoblasts (β-galactosidase activity relative to DMSO) ([3]; 40 uM): 0.9347 | Burkin Assay in Myotubes, α7 integrin LacZ reporter signal relative to DMSO ([4]; 0.5 uM): 0.968 | Burkin Assay in Myotubes, α7 integrin LacZ reporter signal relative to DMSO ([4]; 1 uM): 0.8137 | Burkin Assay in Myotubes, α7 integrin LacZ reporter signal relative to DMSO ([4]; 5 uM): 0.9767 | Burkin Assay in Myotubes, α7 integrin LacZ reporter signal relative to DMSO ([4]; 10 uM): 1.0708 | Burkin Assay in Myotubes, α7 integrin LacZ reporter signal relative to DMSO ([4]; 20 uM): 0.7791 | Burkin Assay in Myotubes, α7 integrin LacZ reporter signal relative to DMSO ([4]; 40 uM): 1.118

CCn1c(O)c(C(C#N)=C2N=c3ccccc3=N2)c2ccccc21 [MLS000564846-01]
CMV-LACZ in Myotubes, value relative to DMSO ([1]; 0.5 uM): 0.8304 | CMV-LACZ in Myotubes, value relative to DMSO ([1]; 1 uM): 1.0444 | CMV-LACZ in Myotubes, value relative to DMSO ([1]; 5 uM): 1.1234 | CMV-LACZ in Myotubes, value relative to DMSO ([1]; 10 uM): 0.8711 | CMV-LACZ in Myotubes, value relative to DMSO ([1]; 20 uM): 1.2012 | CMV-LACZ in Myotubes, value relative to DMSO ([1]; 40 uM): 1.0094 | Burkin Assay in Myoblasts, value relative to DMSO ([2]; 0.5 uM): 0.8359 | Burkin Assay in Myoblasts, value relative to DMSO ([2]; 1 uM): 0.8438 | Burkin Assay in Myoblasts, value relative to DMSO ([2]; 5 uM): 0.8067 | Burkin Assay in Myoblasts, value relative to DMSO ([2]; 10 uM): 0.8704 | Burkin Assay in Myoblasts, value relative to DMSO ([2]; 20 uM): 0.7406 | Burkin Assay in Myoblasts, value relative to DMSO ([2]; 40 uM): 0.759 | CMV-LACZ in Myoblasts, value relative to DMSO ([3]; 0.5 uM): 0.9922 | CMV-LACZ in Myoblasts, value relative to DMSO ([3]; 1 uM): 0.8172 | CMV-LACZ in Myoblasts, value relative to DMSO ([3]; 5 uM): 0.9379 | CMV-LACZ in Myoblasts, value relative to DMSO ([3]; 10 uM): 1.3619 | CMV-LACZ in Myoblasts, value relative to DMSO ([3]; 20 uM): 1.2363 | CMV-LACZ in Myoblasts, value relative to DMSO ([3]; 40 uM): 1.0885 | Burkin Assay in Myotubes, value relative to DMSO ([4]; 0.5 uM): 0.8836 | Burkin Assay in Myotubes, value relative to DMSO ([4]; 1 uM): 0.9557 | Burkin Assay in Myotubes, value relative to DMSO ([4]; 5 uM): 1.002 | Burkin Assay in Myotubes, value relative to DMSO ([4]; 10 uM): 1.071 | Burkin Assay in Myotubes, value relative to DMSO ([4]; 20 uM): 0.7006 | Burkin Assay in Myotubes, value relative to DMSO ([4]; 40 uM): 0.7529

COc1cc([N+](=O)[O-])cc(/C=N/NC(=O)C(O)(c2ccccc2)c2ccccc2)c1O [MLS001183575-01]
CMV-LACZ in Myotubes, signal relative to DMSO ([1]; 0.5 uM): 0.9648 | CMV-LACZ in Myotubes, signal relative to DMSO ([1]; 1 uM): 0.8657 | CMV-LACZ in Myotubes, signal relative to DMSO ([1]; 5 uM): 0.7726 | CMV-LACZ in Myotubes, signal relative to DMSO ([1]; 10 uM): 0.9136 | CMV-LACZ in Myotubes, signal relative to DMSO ([1]; 20 uM): 0.8230 | CMV-LACZ in Myotubes, signal relative to DMSO ([1]; 40 uM): 1.1230 | Burkin Assay in Myoblasts, signal relative to DMSO ([2]; 0.5 uM): 0.9644 | Burkin Assay in Myoblasts, signal relative to DMSO ([2]; 1 uM): 1.009 | Burkin Assay in Myoblasts, signal relative to DMSO ([2]; 5 uM): 0.8981 | Burkin Assay in Myoblasts, signal relative to DMSO ([2]; 10 uM): 0.7946 | Burkin Assay in Myoblasts, signal relative to DMSO ([2]; 20 uM): 0.6916 | Burkin Assay in Myoblasts, signal relative to DMSO ([2]; 40 uM): 0.5338 | CMV-LACZ in Myoblasts (β-galactosidase activity relative to DMSO) ([3]; 0.5 uM): 1.1603 | CMV-LACZ in Myoblasts (β-galactosidase activity relative to DMSO) ([3]; 1 uM): 1.2440 | CMV-LACZ in Myoblasts (β-galactosidase activity relative to DMSO) ([3]; 5 uM): 0.8972 | CMV-LACZ in Myoblasts (β-galactosidase activity relative to DMSO) ([3]; 10 uM): 0.7762 | CMV-LACZ in Myoblasts (β-galactosidase activity relative to DMSO) ([3]; 20 uM): 1.2825 | CMV-LACZ in Myoblasts (β-galactosidase activity relative to DMSO) ([3]; 40 uM): 0.8856 | Burkin Assay in Myotubes, α7 integrin LacZ reporter signal relative to DMSO ([4]; 0.5 uM): 1.0887 | Burkin Assay in Myotubes, α7 integrin LacZ reporter signal relative to DMSO ([4]; 1 uM): 0.9681 | Burkin Assay in Myotubes, α7 integrin LacZ reporter signal relative to DMSO ([4]; 5 uM): 0.8172 | Burkin Assay in Myotubes, α7 integrin LacZ reporter signal relative to DMSO ([4]; 10 uM): 0.7938 | Burkin Assay in Myotubes, α7 integrin LacZ reporter signal relative to DMSO ([4]; 20 uM): 0.7378 | Burkin Assay in Myotubes, α7 integrin LacZ reporter signal relative to DMSO ([4]; 40 uM): 0.6868

N#Cc1nc(COc2ccccc2)oc1N1CCCC1 [MLS000036988-01]
CMV-LACZ in Myotubes, signal relative to DMSO ([1]; 0.5 uM): 0.9867 | CMV-LACZ in Myotubes, signal relative to DMSO ([1]; 1 uM): 0.8905 | CMV-LACZ in Myotubes, signal relative to DMSO ([1]; 5 uM): 0.8979 | CMV-LACZ in Myotubes, signal relative to DMSO ([1]; 10 uM): 1.0868 | CMV-LACZ in Myotubes, signal relative to DMSO ([1]; 20 uM): 0.7116 | CMV-LACZ in Myotubes, signal relative to DMSO ([1]; 40 uM): 0.5021 | Burkin Assay in Myoblasts, signal relative to DMSO ([2]; 0.5 uM): 1.189 | Burkin Assay in Myoblasts, signal relative to DMSO ([2]; 1 uM): 1.0825 | Burkin Assay in Myoblasts, signal relative to DMSO ([2]; 5 uM): 0.8657 | Burkin Assay in Myoblasts, signal relative to DMSO ([2]; 10 uM): 0.8256 | Burkin Assay in Myoblasts, signal relative to DMSO ([2]; 20 uM): 0.9023 | Burkin Assay in Myoblasts, signal relative to DMSO ([2]; 40 uM): 0.6581 | CMV-LACZ in Myoblasts (β-galactosidase activity relative to DMSO) ([3]; 0.5 uM): 1.0767 | CMV-LACZ in Myoblasts (β-galactosidase activity relative to DMSO) ([3]; 1 uM): 1.0846 | CMV-LACZ in Myoblasts (β-galactosidase activity relative to DMSO) ([3]; 5 uM): 0.9702 | CMV-LACZ in Myoblasts (β-galactosidase activity relative to DMSO) ([3]; 10 uM): 1.0435 | CMV-LACZ in Myoblasts (β-galactosidase activity relative to DMSO) ([3]; 20 uM): 0.8796 | CMV-LACZ in Myoblasts (β-galactosidase activity relative to DMSO) ([3]; 40 uM): 0.6578 | Burkin Assay in Myotubes, α7 integrin LacZ reporter signal relative to DMSO ([4]; 0.5 uM): 0.8553 | Burkin Assay in Myotubes, α7 integrin LacZ reporter signal relative to DMSO ([4]; 1 uM): 0.7577 | Burkin Assay in Myotubes, α7 integrin LacZ reporter signal relative to DMSO ([4]; 5 uM): 0.8099 | Burkin Assay in Myotubes, α7 integrin LacZ reporter signal relative to DMSO ([4]; 10 uM): 0.8223 | Burkin Assay in Myotubes, α7 integrin LacZ reporter signal relative to DMSO ([4]; 20 uM): 0.4172 | Burkin Assay in Myotubes, α7 integrin LacZ reporter signal relative to DMSO ([4]; 40 uM): 0.104
